Experimental findings from the supplement of paper PMC10307832 are described below.

Common to all, as to assay: relative viability (nuclei count vs DMSO), 5 days (fraction); higher = more cells survive
Compound in assay [1]: CCn1c(-c2nonc2N)nc2c(C#CC(C)(C)O)ncc(OC[C@H]3CCCNC3)c21 + CS(=O)(=O)N1CCN(Cc2cc3nc(-c4cccc5[nH]ncc45)nc(N4CCOCC4)c3s2)CC1 [Pictilisib] (partner 1 µM)
A digest of the protocol: (§1)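 A single step with final 0.05% Triton X-100, 1% formaldehyde and 1 ug/ml Hoechst fixed the cells and stained nuclei 5 days after treatment. Lung cancer cell lines in 1536-well plates had been treated by pin tool the day after seeding with one drug alone or a fixed anchor-drug dose plus five library-drug doses (not always all listed) in √10 steps, and nuclei were counted on 4× images. Relative viability is the ratio of nuclei in treated wells to nuclei in vehicle wells, taken as the median of duplicate plates.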

Compound in assay [2]: CCn1c(-c2nonc2N)nc2c(C#CC(C)(C)O)ncc(OC[C@H]3CCCNC3)c21 + CC(=O)c1c(C)c2cnc(Nc3ccc(N4CCNCC4)cn3)nc2n(C2CCCC2)c1=O [Palbociclib] (partner 0.5 µM)
An outline of the steps:
as §1

Compound in the assay “BAM7 + Palbociclib”: CCOC1=CC=CC=C1N=NC2=C(NN(C2=O)C3=NC(=CS3)C4=CC=CC=C4)C [BAM7] + CC(=O)c1c(C)c2cnc(Nc3ccc(N4CCNCC4)cn3)nc2n(C2CCCC2)c1=O [Palbociclib] (partner 0.5 µM)
A digest of the protocol: as §1

Compound in assay [3]: CCn1c(-c2nonc2N)nc2c(C#CC(C)(C)O)ncc(OC[C@H]3CCCNC3)c21 + CC(=O)Nc1cccc(-n2c(=O)n(C3CC3)c(=O)c3c(Nc4ccc(I)cc4F)n(C)c(=O)c(C)c32)c1 [Trametinib] (partner 0.02 µM)
A digest of the protocol:
as §1

NCI-H1395: the relative viability in assay [1] (first compound 0.01 µM) came out at 0.665; in assay [1] (first compound 0.03162 µM), 0.536; in assay [1] (first compound 0.1 µM), 0.561; in assay [1] (first compound 0.3162 µM) it was 0.553; in assay [1] (first compound 1 µM), 0.57; in assay [2] (first compound 0.01 µM) it was 0.605. The relative viability in assay [2] (first compound 0.03162 µM) worked out at 0.527; in assay [2] (first compound 0.1 µM), 0.604; in assay [2] (first compound 0.3162 µM) it was 0.495; in assay [2] (first compound 1 µM), 0.509; with BAM7 + Palbociclib (first compound 0.5 µM), 0.578; with BAM7 + Palbociclib (first compound 5 µM), 0.627. In addition, the relative viability with BAM7 + Palbociclib (first compound 15.81 µM) was 0.606; with BAM7 + Palbociclib (first compound 50 µM) it was 0.614; in assay [3] (first compound 0.01 µM) it was 0.947; in assay [3] (first compound 0.03162 µM), 0.864; in assay [3] (first compound 0.1 µM), 0.935; in assay [3] (first compound 0.3162 µM) it was 0.705. In addition, the relative viability in assay [3] (first compound 1 µM) was determined as 0.818.

Regarding NCI-H1437, the relative viability in assay [1] (first compound 0.01 µM) was 0.445; in assay [1] (first compound 0.03162 µM), 0.522; in assay [1] (first compound 0.1 µM) it was 0.432; in assay [1] (first compound 0.3162 µM), 0.406; in assay [1] (first compound 1 µM), 0.378; in assay [2] (first compound 0.01 µM), 0.295. The relative viability in assay [2] (first compound 0.03162 µM) was found to be 0.297; in assay [2] (first compound 0.1 µM), 0.338; in assay [2] (first compound 0.3162 µM), 0.281; in assay [2] (first compound 1 µM) it was 0.359; in the assay with BAM7 + Palbociclib (first compound 0.5 µM), 0.318; with BAM7 + Palbociclib (first compound 5 µM), 0.326. In addition, the relative viability is 0.306 in the assay with BAM7 + Palbociclib (first compound 15.81 µM); 0.326 in the assay with BAM7 + Palbociclib (first compound 50 µM); 0.483 in assay [3] (first compound 0.01 µM); 0.508 in assay [3] (first compound 0.03162 µM); 0.612 in assay [3] (first compound 0.1 µM); 0.515 in assay [3] (first compound 0.3162 µM). Besides, the relative viability in assay [3] (first compound 1 µM) turned out to be 0.535.

On to NCI-H1650, for which the relative viability in assay [1] (first compound 0.01 µM) was found to be 0.531; in assay [1] (first compound 0.03162 µM) it was 0.602; in assay [1] (first compound 0.1 µM), 0.441; in assay [1] (first compound 0.3162 µM) it was 0.586; in assay [1] (first compound 1 µM), 0.562; in assay [2] (first compound 0.01 µM), 0.382. The relative viability in assay [2] (first compound 0.03162 µM) stood at 0.291; in assay [2] (first compound 0.1 µM) it was 0.396; in assay [2] (first compound 0.3162 µM) it was 0.153; in assay [2] (first compound 1 µM), 0.276; with BAM7 + Palbociclib (first compound 0.5 µM), 0.351; in the assay with BAM7 + Palbociclib (first compound 5 µM), 0.268. Moreover, the relative viability is 0.304 in the assay with BAM7 + Palbociclib (first compound 15.81 µM); 0.456 with BAM7 + Palbociclib (first compound 50 µM); 0.548 in assay [3] (first compound 0.01 µM); 0.582 in assay [3] (first compound 0.03162 µM); 0.559 in assay [3] (first compound 0.1 µM); 0.51 in assay [3] (first compound 0.3162 µM). Also, in assay [3] (first compound 1 µM), the relative viability amounted to 0.551.

As for NCI-H1651, the relative viability in assay [1] (first compound 0.01 µM) turned out to be 0.551; in assay [1] (first compound 0.03162 µM), 0.564; in assay [1] (first compound 0.1 µM), 0.607; in assay [1] (first compound 0.3162 µM), 0.523; in assay [1] (first compound 1 µM), 0.639; in assay [2] (first compound 0.01 µM), 0.518. The relative viability turned out to be 0.528 in assay [2] (first compound 0.03162 µM); 0.505 in assay [2] (first compound 0.1 µM); 0.49 in assay [2] (first compound 0.3162 µM); 0.56 in assay [2] (first compound 1 µM); 0.528 with BAM7 + Palbociclib (first compound 0.5 µM); 0.52 with BAM7 + Palbociclib (first compound 5 µM). Besides, the relative viability in the assay with BAM7 + Palbociclib (first compound 15.81 µM) was 0.512; with BAM7 + Palbociclib (first compound 50 µM) it was 0.508; in assay [3] (first compound 0.01 µM), 0.83; in assay [3] (first compound 0.03162 µM), 0.82; in assay [3] (first compound 0.1 µM), 0.811; in assay [3] (first compound 0.3162 µM), 0.783. Moreover, the relative viability in assay [3] (first compound 1 µM) was 0.841.

On to NCI-H1666, for which the relative viability in assay [1] (first compound 0.01 µM) stood at 0.533; in assay [1] (first compound 0.03162 µM) it was 0.395; in assay [1] (first compound 0.1 µM) it was 0.543; in assay [1] (first compound 0.3162 µM) it was 0.408; in assay [1] (first compound 1 µM), 0.392; in assay [2] (first compound 0.01 µM), 0.615. The relative viability was 0.647 in assay [2] (first compound 0.03162 µM); 0.645 in assay [2] (first compound 0.1 µM); 0.626 in assay [2] (first compound 0.3162 µM); 0.636 in assay [2] (first compound 1 µM); 0.628 in the assay with BAM7 + Palbociclib (first compound 0.5 µM); 0.627 in the assay with BAM7 + Palbociclib (first compound 5 µM). Further, the relative viability with BAM7 + Palbociclib (first compound 15.81 µM) worked out at 0.669; in the assay with BAM7 + Palbociclib (first compound 50 µM), 0.677; in assay [3] (first compound 0.01 µM), 0.819; in assay [3] (first compound 0.03162 µM), 0.791; in assay [3] (first compound 0.1 µM), 0.861; in assay [3] (first compound 0.3162 µM), 0.819. Moreover, in assay [3] (first compound 1 µM), the relative viability was 0.878.

As for NCI-H1734, the relative viability is 0.456 in assay [1] (first compound 0.01 µM); 0.466 in assay [1] (first compound 0.03162 µM); 0.403 in assay [1] (first compound 0.1 µM); 0.423 in assay [1] (first compound 0.3162 µM); 0.461 in assay [1] (first compound 1 µM); 0.375 in assay [2] (first compound 0.01 µM). Moreover, the relative viability in assay [2] (first compound 0.03162 µM) was 0.332; in assay [2] (first compound 0.1 µM) it was 0.306; in assay [2] (first compound 0.3162 µM) it was 0.303; in assay [2] (first compound 1 µM) it was 0.33; with BAM7 + Palbociclib (first compound 0.5 µM), 0.38; in the assay with BAM7 + Palbociclib (first compound 5 µM), 0.332. In addition, the relative viability with BAM7 + Palbociclib (first compound 15.81 µM) is 0.364; with BAM7 + Palbociclib (first compound 50 µM), 0.318; in assay [3] (first compound 0.01 µM), 0.705; in assay [3] (first compound 0.03162 µM), 0.664; in assay [3] (first compound 0.1 µM), 0.678; in assay [3] (first compound 0.3162 µM) it was 0.584. In assay [3] (first compound 1 µM), the relative viability came to 0.679.

Regarding NCI-H1755, the relative viability is 0.426 in assay [1] (first compound 0.01 µM); 0.445 in assay [1] (first compound 0.03162 µM); 0.41 in assay [1] (first compound 0.1 µM); 0.408 in assay [1] (first compound 0.3162 µM); 0.382 in assay [1] (first compound 1 µM); 0.451 in assay [2] (first compound 0.01 µM). The relative viability in assay [2] (first compound 0.03162 µM) amounted to 0.514; in assay [2] (first compound 0.1 µM), 0.463; in assay [2] (first compound 0.3162 µM), 0.437; in assay [2] (first compound 1 µM) it was 0.422; with BAM7 + Palbociclib (first compound 0.5 µM) it was 0.462; with BAM7 + Palbociclib (first compound 5 µM), 0.466. Moreover, the relative viability came out at 0.439 with BAM7 + Palbociclib (first compound 15.81 µM); 0.436 with BAM7 + Palbociclib (first compound 50 µM); 0.855 in assay [3] (first compound 0.01 µM); 0.808 in assay [3] (first compound 0.03162 µM); 0.801 in assay [3] (first compound 0.1 µM); 0.769 in assay [3] (first compound 0.3162 µM). Further, the relative viability in assay [3] (first compound 1 µM) worked out at 0.801.
